Values of other authors, collected in PMC11785708, “Design and synthesis of new quinazolinone derivatives: investigation of antimicrobial and biofilm inhibition effects” (Molecular Diversity, 2024).

Tested on: Candida albicans
Design: method as in doi:10.1002/slct.201803795
Conditions: read-out: anti-biofilm activity IC50; cited from earlier work

COc1cc(OC)c(-c2nc3ccccc3c(=O)[nH]2)c(OC)c1 [V]
IC50: < 30 µM
